Results from patent publication US20230089867A1, “CYCLIC PENTAMER COMPOUNDS AS PROPROTEIN CONVERTASE SUBTILISIN/KEXIN TYPE 9 (PCSK9) INHIBITORS FOR THE TREATMENT OF METABOLIC DISORDER” (Novartis AG, priority 2018, published 2023).

Target: human PCSK9 (Homo sapiens, UniProt Q8NBP7)
Assay: PCSK9 ligand binding TR-FRET assay (interference with binding of human PCSK9 to human LDLR)
Settings: for Max % inhibition: PCSK9 FRET assay, efficacy (Amax), 100% = 1 uM unlabeled human PCSK9, 0% = DMSO; for IC50: TR-FRET, human PCSK9 Alexa Fluor 647 / human LDLR extracellular domain-Europium Kryptate, read-out: PCSK9 FRET Assay IC50
How it was run: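 Threefold compound dilutions were pre-incubated 30 min with PCSK9, after which 4 nM Europium Kryptate-tagged human LDLR ectodomain was added for a further 2 h.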

Chain of human PCSK9 (Q8NBP7 153-692): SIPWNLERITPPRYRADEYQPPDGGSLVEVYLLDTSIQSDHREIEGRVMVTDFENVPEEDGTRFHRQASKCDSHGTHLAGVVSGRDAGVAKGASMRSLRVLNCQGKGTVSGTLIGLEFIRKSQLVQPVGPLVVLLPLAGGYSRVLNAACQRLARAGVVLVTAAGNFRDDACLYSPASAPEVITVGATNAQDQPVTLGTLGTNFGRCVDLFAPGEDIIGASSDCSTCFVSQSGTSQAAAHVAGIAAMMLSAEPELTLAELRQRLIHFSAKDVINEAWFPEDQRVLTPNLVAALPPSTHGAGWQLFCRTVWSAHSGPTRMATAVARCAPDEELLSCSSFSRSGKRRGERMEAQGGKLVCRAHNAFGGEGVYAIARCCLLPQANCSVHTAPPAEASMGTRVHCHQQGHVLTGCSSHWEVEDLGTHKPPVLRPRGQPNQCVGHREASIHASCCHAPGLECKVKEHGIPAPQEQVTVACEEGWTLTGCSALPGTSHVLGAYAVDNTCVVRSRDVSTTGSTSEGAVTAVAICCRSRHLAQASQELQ
Chain of human PCSK9 (Q8NBP7 31-152 partner limits assumed): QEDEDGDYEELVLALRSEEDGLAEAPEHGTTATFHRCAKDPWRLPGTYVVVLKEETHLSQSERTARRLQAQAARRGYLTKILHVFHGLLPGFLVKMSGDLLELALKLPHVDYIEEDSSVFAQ

Row | Max % inhibition [%] | IC50 [nM] | Structure (SMILES)
1 | 71.97 | 7.3 | COC[C@@H]1NC(=O)[C@H](C)N(Cc2ccc(Cl)cc2Oc2ccc(-c3cnc4n3CCN(C(=O)C(C)C)C4)cc2)C(=O)C[C@@H](Cc2ccccc2)C(=O)N(C)[C@@H](C)CNC(=O)C[C@H](Cc2ccc(Cl)cc2)N(C)C1=O [Compound 132, (2S,5S,8S,13S,16R)-16-benzyl-1-(4-chloro-2-(4-(7-isobutyryl-5,6,7,8-tetrahydroimidazo[1,2-a]pyrazin-3-yl)phenoxy)benzyl)-8-(4-chlorobenzyl)-5-(methoxymethyl)-2,7,13,14-tetramethyl-1,4,7,11,14-pentaazacyclooctadecane-3,6,10,15,18-pentaone]
2 | 98.16 | 1.9 | COC[C@@H]1NC(=O)[C@H](C)N(Cc2ccc(Cl)cc2Oc2ccc(-c3cnc(CN(C)C)n3C)cc2)C(=O)C[C@@H](Cc2cc(F)cc(F)c2F)C(=O)N(C)[C@@H](C)CNC(=O)C[C@H](Cc2ccc(Cl)cc2)N(C)C1=O [Compound 98, (2S,5S,8S,13S,16R)-1-(4-chloro-2-(4-(2-((dimethylamino)methyl)-1-methyl-1H-imidazol-5-yl)phenoxy)benzyl)-8-(4-chlorobenzyl)-5-(methoxymethyl)-2,7,13,14-tetramethyl-16-(2,3,5-trifluorobenzyl)-1,4,7,11,14-pentaazacyclooctadecane-3,6,10,15,18-pentaone]
3 | 96.97 | 1 | COC[C@@H]1NC(=O)[C@H](C)N(Cc2ccc(Cl)cc2Oc2ccc(-c3cnc(CN4CCC4)n3C)cc2)C(=O)C[C@@H](Cc2ccccc2)C(=O)N(C)[C@@H](C)CNC(=O)C[C@H](Cc2ccc(Cl)cc2)N(C)C1=O [Compound 76, (2S,5S,8S,13S,16R)-1-(2-(4-(2-(azetidin-1-ylmethyl)-1-methyl-1H-imidazol-5-yl)phenoxy)-4-chlorobenzyl)-16-benzyl-8-(4-chlorobenzyl)-5-(methoxymethyl)-2,7,13,14-tetramethyl-1,4,7,11,14-pentaazacyclooctadecane-3,6,10,15,18-pentaone]
4 | 85.66 | 67.7 | COC[C@@H]1NC(=O)[C@H](C)N(Cc2c[nH]c(=O)cc2Oc2ccc(-c3cnc(CN(C)C)n3C)cc2)C(=O)C[C@@H](Cc2ccccc2)C(=O)N(C)[C@@H](C)CNC(=O)C[C@H](Cc2ccc(Cl)cc2)N(C)C1=O [Compound 168, (2S,5S,8S,13S,16R)-16-benzyl-8-(4-chlorobenzyl)-1-((4-(4-(2-((dimethylamino)methyl)-1-methyl-1H-imidazol-5-yl)phenoxy)-6-oxo-1,6-dihydropyridin-3-yl)methyl)-5-(methoxymethyl)-2,7,13,14-tetramethyl-1,4,7,11,14-pentaazacyclooctadecane-3,6,10,15,18-pentaone]
5 | 102.86 | 1.6 | COC[C@@H]1NC(=O)[C@H](CCCN(C)C)N(Cc2ccc(Cl)cc2Oc2ccc(-c3cnc(CN(C)C)n3C)cc2)C(=O)C[C@@H](Cc2ccccc2)C(=O)N(C)[C@H]2CCCC[C@@H]2NC(=O)C[C@H](Cc2ccc(Cl)cc2)N(C)C1=O [Compound 291, (4S,7S,10S,14R,16aS,20aS)-14-benzyl-11-(4-chloro-2-(4-(2-((dimethylamino)methyl)-1-methyl-1H-imidazol-5-yl)phenoxy)benzyl)-4-(4-chlorobenzyl)-10-(3-(dimethylamino)propyl)-7-(methoxymethyl)-5,16-dimethylhexadecahydrobenzo[l][1,4,7,11,14]pentaazacyclooctadecine-2,6,9,12,15(3H)-pentaone]
6 | 105.15 | 0.9 | COC[C@@H]1NC(=O)[C@H](CC(=O)O)N(Cc2ccc(Cl)cc2Oc2ccc(-c3cnc(CN(C)C)n3C)cc2)C(=O)C[C@@H](Cc2ccccc2)C(=O)N(C)[C@H]2CCCC[C@@H]2NC(=O)C[C@H](Cc2ccc(Cl)cc2)N(C)C1=O [Compound 219, 2-((4S,7S,10S,14R,16aS,20aS)-14-benzyl-11-(4-chloro-2-(4-(2-((dimethylamino)methyl)-1-methyl-1H-imidazol-5-yl)phenoxy)benzyl)-4-(4-chlorobenzyl)-7-(methoxymethyl)-5,16-dimethyl-2,6,9,12,15-pentaoxodocosahydrobenzo[l][1,4,7,11,14]pentaazacyclooctadecin-10-yl)acetic acid]
7 | 97.63 | 205 | COC[C@@H]1NC(=O)[C@H](C)N(Cc2ccc(Cl)cc2Oc2ccc(-c3cnc(CN(C)C)n3C)cc2)C(=O)C[C@H]2C(=O)N(C)[C@@H](CNC(=O)C[C@H](Cc3ccc(Cl)cc3)N(C)C1=O)C(=O)N2C [Compound 262, (1S,6S,9S,12S,16S)-13-(4-chloro-2-(4-(2-((dimethylamino)methyl)-1-methyl-1H-imidazol-5-yl)phenoxy)benzyl)-6-(4-chlorobenzyl)-9-(methoxymethyl)-7,12,17,19-tetramethyl-3,7,10,13,17,19-hexaazabicyclo[14.2.2]icosane-4,8,11,14,18,20-hexaone]
8 | 106.17 | 1.3 | COCCN(C)C(=O)C[C@H]1C(=O)N[C@@H](COC)C(=O)N(C)[C@@H](Cc2ccc(Cl)cc2)CC(=O)N[C@H]2CCCC[C@@H]2N(C)C(=O)[C@H](Cc2ccccc2)CC(=O)N1Cc1ccc(Cl)cc1Oc1ccc(-c2cnc(CN(C)C)n2C)cc1 [Compound 239, 2-((4S,7S,10S,14R,16aS,20aS)-14-benzyl-11-(4-chloro-2-(4-(2-((dimethylamino)methyl)-1-methyl-1H-imidazol-5-yl)phenoxy)benzyl)-4-(4-chlorobenzyl)-7-(methoxymethyl)-5,16-dimethyl-2,6,9,12,15-pentaoxodocosahydrobenzo[l][1,4,7,11,14]pentaazacyclooctadecin-10-yl)-N-(2-methoxyethyl)-N-methylacetamide]
9 | 106.65 | 1.5 | COC[C@@H]1NC(=O)[C@H](C)N(Cc2ccc(Cl)cc2Oc2ccc(-n3cnc(CN4CCCC4)c3C)cc2)C(=O)C[C@@H](Cc2ccccc2)C(=O)N(C)[C@H]2CCCC[C@@H]2NC(=O)C[C@H](Cc2ccc(Cl)cc2)N(C)C1=O [Compound 19, (4S,7S,10S,14R,16aS,20aS)-14-benzyl-11-(4-chloro-2-(4-(5-methyl-4-(pyrrolidin-1-ylmethyl)-1H-imidazol-1-yl)phenoxy)benzyl)-4-(4-chlorobenzyl)-7-(methoxymethyl)-5,10,16-trimethylhexadecahydrobenzo[l][1,4,7,11,14]pentaazacyclooctadecine-2,6,9,12,15(3H)-pentaone]

Row | Structure (SMILES) | Max % inhibition [%] | IC50 [nM]
10 | COC[C@@H]1NC(=O)[C@H](C)N(Cc2ccc(Cl)cc2Oc2ccc(-c3cnc4n3CCNC4)cc2)C(=O)C[C@@H](Cc2ccccc2)C(=O)N(C)[C@@H](C)CNC(=O)C[C@H](Cc2ccc(Cl)cc2)N(C)C1=O.O=C(O)C(F)(F)F [Compound 121, (2S,5S,8S,13S,16R)-16-benzyl-1-(4-chloro-2-(4-(5,6,7,8-tetrahydroimidazo[1,2-a]pyrazin-3-yl)phenoxy)benzyl)-8-(4-chlorobenzyl)-5-(methoxymethyl)-2,7,13,14-tetramethyl-1,4,7,11,14-pentaazacyclooctadecane-3,6,10,15,18-pentaone trifluoroacetate] | 59.89 | 2.8
